Laboratory results as given in article PMC9317966, “Structure-function analysis of the AMPK activator SC4 and identification of a potent pan AMPK activator” (Biochemical Journal, 2022).

What was measured:
C2C12 myoblasts = assay: C2C12 oxygen consumption rate (Seahorse), mitochondrial function; format: cell-based, Murine; settings: for basal respiration, ATP production, maximal respiration, spare respiratory capacity, non-mitochondrial oxygen consumption and coupling efficiency: 1 h
Protocol: Murine C2C12 myoblasts were plated at 1 × 10^4 cells/well into Agilent Seahorse XFe24 Cell Culture Microplates in DMEM (life Technologies, Australia) containing 10% (v/v) fetal calf serum, 1% L-glutamine (v/v), and 1% (v/v) antibiotic solution (100 unit/ml penicillin/streptomycin) at 37°C in an atmosphere of 5% CO2. The next day, cells were switched to Seahorse basal assay media (Agilent, cat#: 102353-100; 48.5 ml) containing Glutamax (500 µl of 100×; Gibco, cat#35050), D-glucose (Sigma–Aldrich cat#: G8769) and sodium pyruvate (100×; Gibco cat#: 11360-070) at pH 7.4. MK-8722 at varying doses (0, 1, 10 µM) was incubated with myotubes 1 h prior to experiment, and the assay performed by titrating oligomycin (2 µM), FCCP (2 µM), and rotenone (2 µM) plus antimycin A (2 µM) as indicated. A Seahorse XFe24 Flux Analyzer (Seahorse Biosciences) was used to measure Oxygen Consumption Rate (OCR) at three time points during basal respiration and after each injection. Cells were lysed in equal volume (20 µl) and OCR measurements were normalised to total protein determined by polyacrylamide electrophoresis (5 µl lysate/well) and stain-free imaging.
Lysates were assessed for phosphorylation of AMPKα-Thr172 by immunoblot. n = 3, data presented as mean T172 phosphorylation (arbitrary units) ± SEM. Statistical significance vs. respective vehicle treatment was performed using unpaired, two-tailed Student’s t-test. **** P < 0.0001 indicates significant increase in a-Thr172 phosphorylation relative to vehicle treated WT γ1AMPK. Representative immunoblots are shown. (B) C2C12 myoblast oxygen consumption rate following treatment of MK-8722 (0, 1, 10 µM) for 1 h and titration of specific respiration modulators. (C-I) Parameters of mitochondrial function. n = 6-7, data presented as mean oxygen consumption rate ± SEM. […] (J) Lysates were assessed for total protein content following the respiration assay.

[1] = test system: HEK293T/17 cells expressing γ1-R299G AMPK; assay: α-Thr172 phosphorylation immunoblot, HEK293T/17 cells expressing AMP-insensitive γ1 mutant R299G; format: cell-based; settings: 2.5 µM
Protocol: To explore this dose-dependent response, we used HEK293T/17 cells transiently expressing WT γ1AMPK or the AMP-insensitive γ1 mutant R299G (Supplementary Figure S4A). […] One explanation is that 2.5 µM MK-8722 caused indirect activation of AMPK (α-Thr172 phosphorylation) by inducing a metabolic stress leading to rises in AMP/ATP and ADP/ATP ratios. We examined the effect of MK-8722 incubation on C2C12 mitochondrial function (Supplementary Figure S4B–I).
HEK293T/17, HEK293T, COS7, HeLa and PC3 cells (ATCC) were maintained in Dulbecco's Modified Eagle's medium (DMEM; Sigma–Aldrich) supplemented with 10% fetal bovine serum (FBS; Assay Matrix) at 37°C and 5% CO2. Primary hepatocytes from wild type mice were prepared using the collagenase perfusion method and cultured as described previously. […]
(§1) All samples were separated on 12% SDS–PAGE gels and transferred to an Immobilon-FL PVDF membrane (Merck Millipore). […] Immunoblots were visualised on the Odyssey Infrared Imaging System (LI-COR Biosciences) and immunoreactive bands analysed and quantified using Image Studio Software (LI-COR Biosciences).
Lysates were assessed for phosphorylation of AMPKα-Thr172 by immunoblot. n = 3, data presented as mean T172 phosphorylation (arbitrary units) ± SEM. […] (J) Lysates were assessed for total protein content following the respiration assay.

PC3 cells = assay: Immunoblot of AMPK signalling in PC3 cells; format: cell-based; settings: PC3, 2.5 µM, 1 h
Protocol: (§2) To evaluate the efficacy of MSG011 in cellulo, we incubated mouse primary hepatocytes with 2.5 µM MSG011 for 60 min and tracked changes in phosphorylation of AMPK α-Thr172 (marker of activation) and the AMPK substrate acetyl-CoA carboxylase (ACC) Ser79 (AMPK signalling marker).
(§3) HEK293T/17, HEK293T, COS7, HeLa and PC3 cells (ATCC) were maintained in Dulbecco's Modified Eagle's medium (DMEM; Sigma–Aldrich) supplemented with 10% fetal bovine serum (FBS; Assay Matrix) at 37°C and 5% CO2. Primary hepatocytes from wild type mice were prepared using the collagenase perfusion method and cultured as described previously. Cultures were incubated with fresh DMEM (no FBS) for 2 h prior to 1 h treatment with MSG011 (dissolved in DMSO) or phenformin (dissolved in H2O). Adherent HEK293T/17 cells at ∼50% confluency were triply transfected with AMPK α1 (pcDNA3.1 vector), β1 (COOH-terminal MYC fusion, pcDNA3.1 vector) and WT γ1 or γ1-R299G mutant (NH2-terminal HA fusion, pMT2 vector) in the presence of FuGENE HD transfection reagent (Promega) as per the manufacturers protocol. […]
as §1

HEK293T cells = assay: Immunoblot of AMPK signalling in HEK293T cells; format: cell-based; settings: 2.5 µM, 1 h
Protocol: as §2, §3, §1

HeLa cells = assay: Immunoblot of AMPK signalling in HeLa cells; format: cell-based; settings: 2.5 µM, 1 h
Protocol: as §2, §3, §1

[2] = test system: mouse primary hepatocytes; assay: Immunoblot of AMPK signalling in mouse primary hepatocytes; format: cell-based; settings: 2.5 µM, 60 min
Protocol: as §2, §3, §1

O[C@@H]1CO[C@H]2[C@@H]1OC[C@H]2Oc1nc2nc(-c3ccc(-c4ccccc4)cc3)c(Cl)cc2[nH]1 [MK-8722, reference compound]
cell viability by total protein stain (C2C12 myoblasts; 0, 1, 10 µM, after respiration assay): not due to loss of cell viability
basal respiration, ATP production, maximal respiration, spare respiratory capacity, non-mitochondrial oxygen consumption and coupling efficiency (C2C12 myoblasts; 1 µM): not
basal respiration, ATP production, maximal respiration, spare respiratory capacity, non-mitochondrial oxygen consumption and coupling efficiency (C2C12 myoblasts; 10 µM): significantly impaired
decrease of induced α-Thr172 phosphorylation relative to WT γ1 cells [1]: ~55%
effect on phosphorylation of α-Thr172 ([1]; 60 min): largely abrogated

CC(=O)NC1CC=C(c2ccc(-c3nc4nc(Oc5ccc(C)c(C(=O)O)c5)[nH]c4cc3Cl)cc2)CC1 (centres unmarked) [MSG011, 5-((5-(4′-Acetamido-2′,3′,4′,5′-tetrahydro-[1,1′-biphenyl]-4-yl)-6-chloro-1H-imidazo[4,5-b]pyridin-2-yl)oxy)-2-methylbenzoic acid]
AMPK signalling (phosphorylation of ACC-Ser79 and raptor-Ser792) (PC3 cells): significantly activated AMPK
α-Thr172 phosphorylation (PC3 cells): independent of changes to α-Thr172 phosphorylation
AMPK signalling (phosphorylation of ACC-Ser79 and raptor-Ser792) (HEK293T cells): at levels comparable to extreme energy stress
α-Thr172 phosphorylation (HEK293T cells): independent of changes to α-Thr172 phosphorylation
AMPK signalling (phosphorylation of ACC-Ser79 and raptor-Ser792) (HeLa cells): significantly activated AMPK
phosphorylation of AMPK α-Thr172 [2]: independently of significant net phosphorylation of AMPK α-Thr172
